Results taken from patent US11981673B1, “7-isopropyl 1,2-dimethyl 3-(substituted benzoyl)indolizine-1,2,7 tricarboxylates as adenosine receptor active compounds” (KING FAISAL UNIVERSITY, priority 2023, dated 2024).

Columns and labels:
[1] = biological target: T1, hA2BR (Homo sapiens, UniProt P29275); experiment: Inhibition of NECA-stimulated adenylyl cyclase activity in CHO cells expressing hA2BR (GloSensor cAMP assay); format: cell-based; settings: means ± SE
T1 construct: expressed in transfected cells; host or cells: cells stably expressing the receptor and the GloSensor biosensor (CHO)
T1 sequence (P29275 1-332): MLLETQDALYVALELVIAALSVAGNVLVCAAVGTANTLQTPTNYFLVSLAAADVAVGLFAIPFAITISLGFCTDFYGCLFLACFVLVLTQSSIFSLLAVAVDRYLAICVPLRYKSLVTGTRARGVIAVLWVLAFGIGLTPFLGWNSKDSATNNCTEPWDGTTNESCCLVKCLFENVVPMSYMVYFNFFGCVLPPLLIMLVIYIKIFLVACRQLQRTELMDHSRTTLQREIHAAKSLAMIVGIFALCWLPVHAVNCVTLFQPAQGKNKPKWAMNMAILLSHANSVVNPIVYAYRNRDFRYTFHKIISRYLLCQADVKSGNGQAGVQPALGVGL
Method: The activity of compounds understudy was evaluated using the GloSensor™ (Promega Corporation) cAMP assay, which is a new non-radioactive method offering a simple approach to monitor GPCR activity through change in the intracellular cAMP concentration. This assay uses a mutant form of Photinus pyralis luciferase into which a cAMP-binding protein moiety has been inserted. The binding with cAMP triggers a biosensor conformational change that leads to an increase of light output allowing to evaluate the activity of ligands at the receptor under study. Following pre-equilibration with a substrate, cells stably expressing both the receptor of interest and the biosensor can be used to evaluate GPCR function enabling easy kinetic measurements of cAMP accumulation or turnover in living cells.
The antagonist profile of the compounds on A2BR was evaluated by assessing their ability to counteract the agonist NECA-induced increase of cAMP accumulation. After 2 hours of equilibration in reaction medium cells were incubated in 384 well plate (10 minutes at room temperature) with 3 μL of different antagonist concentrations and then treated with 3 μL of a fixed dose of NECA. After another 10 minutes of incubation various luminescence reads were performed at different incubation times.

[2] = biological target: T2, human A3R (Homo sapiens, UniProt P0DMS8); experiment: Displacement of specific [3H]-HEMADO binding at human A3R expressed in CHO cells; settings: [3H]-HEMADO displacement, means ± SE, read-out: hA3R (Ki nM)
T2 construct: expressed in transfected cells; host or cells: CHO cells
T2 sequence (P0DMS8 1-318): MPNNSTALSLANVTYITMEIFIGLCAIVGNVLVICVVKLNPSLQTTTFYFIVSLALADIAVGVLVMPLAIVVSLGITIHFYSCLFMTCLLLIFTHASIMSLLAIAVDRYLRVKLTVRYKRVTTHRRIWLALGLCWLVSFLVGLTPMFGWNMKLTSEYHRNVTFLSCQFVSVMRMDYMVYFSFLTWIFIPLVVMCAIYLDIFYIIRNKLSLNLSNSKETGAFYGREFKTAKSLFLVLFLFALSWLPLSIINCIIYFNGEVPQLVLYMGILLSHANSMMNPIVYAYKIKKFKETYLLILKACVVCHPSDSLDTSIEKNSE

[3] = biological target: T3, human A2AR (Homo sapiens, UniProt P29274); experiment: Displacement of specific [3H]-NECA binding at human A2AR expressed in CHO cells; settings: [3H]-NECA displacement, means ± SE, read-out: hA2AR (Ki nM)
T3 construct: expressed in transfected cells; host or cells: CHO cells
T3 sequence (P29274 whole entry): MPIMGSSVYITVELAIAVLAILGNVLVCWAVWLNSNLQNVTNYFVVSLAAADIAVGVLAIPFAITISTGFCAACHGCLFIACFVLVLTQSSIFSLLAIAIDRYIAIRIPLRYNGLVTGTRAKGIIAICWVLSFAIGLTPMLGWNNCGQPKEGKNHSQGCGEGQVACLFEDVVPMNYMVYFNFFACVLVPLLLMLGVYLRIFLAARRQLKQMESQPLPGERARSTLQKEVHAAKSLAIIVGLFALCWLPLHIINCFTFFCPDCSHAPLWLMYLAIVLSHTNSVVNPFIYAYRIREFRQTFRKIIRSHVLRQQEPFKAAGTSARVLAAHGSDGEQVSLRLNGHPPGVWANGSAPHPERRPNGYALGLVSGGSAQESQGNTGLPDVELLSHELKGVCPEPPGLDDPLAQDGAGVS

[4] = biological target: T4, human A1R (Homo sapiens, UniProt P30542); experiment: Displacement of specific [3H]-CCPA binding at human A1R expressed in CHO cells; settings: [3H]-CCPA displacement, means ± SE, read-out: hA1R (Ki nM)
T4 construct: expressed in transfected cells; host or cells: CHO cells
T4 sequence (P30542 1-326): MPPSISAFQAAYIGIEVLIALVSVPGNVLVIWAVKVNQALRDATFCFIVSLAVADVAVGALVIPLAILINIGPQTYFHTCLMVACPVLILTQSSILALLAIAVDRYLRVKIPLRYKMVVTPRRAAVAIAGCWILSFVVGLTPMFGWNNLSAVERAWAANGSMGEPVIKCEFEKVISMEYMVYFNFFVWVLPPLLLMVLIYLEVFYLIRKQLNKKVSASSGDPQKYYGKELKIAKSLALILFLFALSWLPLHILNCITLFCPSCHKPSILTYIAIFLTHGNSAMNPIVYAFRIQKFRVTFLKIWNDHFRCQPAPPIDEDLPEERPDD

Row | Compound | IC50 [1] [nM] | Ki [2] [nM] | Ki [3] [nM] | Ki [4] [nM]
1 | CCOC(=O)c1cc(C(=O)c2ccc(Cl)cc2)n2ccc(C(=O)OC(C)C)cc12 [KNV-ISP6, 1-Ethyl 7-isopropyl 3-(4-chlorobenzoyl)indolizine-1,7-dicarboxylate] | > 30000 | 14300 ± 480 | > 30000 | > 30000
2 | CCOC(=O)c1cc(C(=O)c2ccc(C#N)cc2)n2ccc(C(=O)OC(C)C)cc12 [KNV-ISP10, 1-Ethyl 7-isopropyl 3-(4-cyanobenzoyl)indolizine-1,7-dicarboxylate] | > 30000 | 7670 ± 1730 | > 30000 | > 30000
3 | CCOC(=O)c1cc(C(=O)c2ccccc2)n2ccc(C(=O)OC(C)C)cc12 [KNV-ISP2, 1-Ethyl 7-isopropyl 3-benzoylindolizine-1,7-dicarboxylate] | > 30000 | 3640 ± 837 | > 30000 | 7050 ± 706
4 | CCOC(=O)c1cc(C(=O)c2ccc(Br)cc2)n2ccc(C(=O)OC(C)C)cc12 [KNV-ISP8, 1-Ethyl 7-isopropyl 3-(4-bromobenzoyl)indolizine-1,7-dicarboxylate] | > 30000 | 1680 ± 283 | > 30000 | > 30000
5 | COC(=O)c1c(C(=O)OC)c2cc(C(=O)OC(C)C)ccn2c1C(=O)c1ccc(F)cc1 [KNV-ISP3, 7-Isopropyl 1,2-dimethyl 3-(4-fluorobenzoyl)indolizine-1,2,7-tricarboxylate] | > 30000 | 1400 ± 348 | 3950 ± 695 | 2710 ± 388

Now from value to compound:

Row | IC50 [1] [nM] | Ki [2] [nM] | Ki [3] [nM] | Ki [4] [nM] | Compound
6 | > 30000 | 1600 ± 14 | 2921 ± 13 | 692 ± 41 | COC(=O)c1c(C(=O)OC)c2cc(C(=O)OC(C)C)ccn2c1C(=O)c1ccc(C)cc1 [KNV-ISP11, 7-Isopropyl 1,2-dimethyl 3-(4-methylbenzoyl)indolizine-1,2,7-tricarboxylate]
7 | > 30000 | 2200 ± 313 | 2690 ± 631 | 1640 ± 37 | COC(=O)c1c(C(=O)OC)c2cc(C(=O)OC(C)C)ccn2c1C(=O)c1ccccc1 [KNV-ISP1, 7-Isopropyl 1,2-dimethyl 3-benzoylindolizine-1,2,7-tricarboxylate]
8 | > 30000 | 7597 ± 29 | 7400 ± 833 | 3712 ± 12 | COC(=O)c1c(C(=O)OC)c2cc(C(=O)OC(C)C)ccn2c1C(=O)c1ccc(Cl)cc1 [KNV-ISP5, 7-Isopropyl 1,2-dimethyl 3-(4-chlorobenzoyl)indolizine-1,2,7-tricarboxylate]
9 | > 30000 | 1220 ± 339 | 14900 ± 3750 | 5410 ± 711 | COC(=O)c1c(C(=O)OC)c2cc(C(=O)OC(C)C)ccn2c1C(=O)c1ccc(Br)cc1 [KNV-ISP7, 7-Isopropyl 1,2-dimethyl 3-(4-bromobenzoyl)indolizine-1,2,7-tricarboxylate]
10 | > 30000 | 665 ± 26 | > 30000 | 6980 ± 577 | CCOC(=O)c1cc(C(=O)c2ccc(F)cc2)n2ccc(C(=O)OC(C)C)cc12 [KNV-ISP4, 1-Ethyl 7-isopropyl 3-(4-fluorobenzoyl)indolizine-1,7-dicarboxylate]
11 | > 30000 | 6210 ± 338 | 10300 ± 1340 | > 30000 | COC(=O)c1c(C(=O)OC)c2cc(C(=O)OC(C)C)ccn2c1C(=O)c1ccc(C#N)cc1 [KNV-ISP9, 7-Isopropyl 1,2-dimethyl 3-(4-cyanobenzoyl)indolizine-1,2,7-tricarboxylate]
